According to the NIST ThermoML archive (doi:10.1016/j.jct.2017.08.004):

Assay: molar heat capacity at constant pressure
Settings: 101.33 kPa, Crystal

OC[C@H](O)C(O)[C@@H](O)CO [L-(-)-arabitol]
Settings	molar heat capacity at constant pressure [J/K/mol]
1 K, relaxation calorimetry	0.0009071
1.925 K, relaxation calorimetry	0.00486
2 K, relaxation calorimetry	0.00537
2.126 K, relaxation calorimetry	0.006333
2.35 K, relaxation calorimetry	0.008531
2.603 K, relaxation calorimetry	0.01139
2.89 K, relaxation calorimetry	0.01551
3 K, relaxation calorimetry	0.01737
3.204 K, relaxation calorimetry	0.02118
3.551 K, relaxation calorimetry	0.02864
3.938 K, relaxation calorimetry	0.03916
4 K, relaxation calorimetry	0.04172
4.366 K, relaxation calorimetry	0.05484
4.845 K, relaxation calorimetry	0.07705
5 K, relaxation calorimetry	0.08452
5.374 K, relaxation calorimetry	0.1069
5.962 K, relaxation calorimetry	0.1505
6 K, relaxation calorimetry	0.1535
6.615 K, relaxation calorimetry	0.2138
7 K, relaxation calorimetry	0.26
7.345 K, relaxation calorimetry	0.3087
8 K, relaxation calorimetry	0.4176
8.151 K, relaxation calorimetry	0.4472
9 K, relaxation calorimetry	0.6348
9.046 K, relaxation calorimetry	0.6445
10 K, relaxation calorimetry	0.9169
10.12 K, relaxation calorimetry	0.9515
11.21 K, relaxation calorimetry	1.346
12.43 K, relaxation calorimetry	1.885
13.79 K, relaxation calorimetry	2.589
15 K, relaxation calorimetry	3.316
15.3 K, relaxation calorimetry	3.507
16.99 K, relaxation calorimetry	4.683
18.86 K, relaxation calorimetry	6.145
20 K, relaxation calorimetry	7.063
21 K, relaxation calorimetry	7.93
23.34 K, relaxation calorimetry	10
25 K, relaxation calorimetry	11.59
25.89 K, relaxation calorimetry	12.41
28.74 K, relaxation calorimetry	15.2
30 K, relaxation calorimetry	16.48
31.91 K, relaxation calorimetry	18.4
35 K, relaxation calorimetry	21.5
35.44 K, relaxation calorimetry	21.96
39.34 K, relaxation calorimetry	25.96
40 K, relaxation calorimetry	26.56
43.67 K, relaxation calorimetry	30.28
45 K, relaxation calorimetry	31.57
48.47 K, relaxation calorimetry	34.84
50 K, relaxation calorimetry	36.42
53.79 K, relaxation calorimetry	39.93
55 K, relaxation calorimetry	41.06
59.71 K, relaxation calorimetry	45.44
60 K, relaxation calorimetry	45.6
65 K, relaxation calorimetry	50.22
66.3 K, relaxation calorimetry	51.38
70 K, relaxation calorimetry	54.55
73.59 K, relaxation calorimetry	57.52
75 K, relaxation calorimetry	58.73
80 K, relaxation calorimetry	62.81
81.71 K, relaxation calorimetry	64.34
85 K, relaxation calorimetry	66.8
90 K, relaxation calorimetry	70.7
90.67 K, relaxation calorimetry	71.56
95 K, relaxation calorimetry	74.53
100 K, relaxation calorimetry	78.28
100.62 K, relaxation calorimetry	78.32
110 K, relaxation calorimetry	85.55
110.77 K, relaxation calorimetry	85.86
120 K, relaxation calorimetry	92.52
120.75 K, relaxation calorimetry	93.29
130 K, relaxation calorimetry	99.22
130.83 K, relaxation calorimetry	99.89
140 K, relaxation calorimetry	105.69
141 K, relaxation calorimetry	106.35
150 K, relaxation calorimetry	111.98
151.08 K, relaxation calorimetry	112.59
160 K, relaxation calorimetry	118.13
161.19 K, relaxation calorimetry	118.71
170 K, relaxation calorimetry	124.19
171.26 K, relaxation calorimetry	124.81
180 K, relaxation calorimetry	130.18
181.32 K, relaxation calorimetry	131.15
188.15 K, Small sample (50 mg) DSC	129.04
189.15 K, Small sample (50 mg) DSC	130.57
190 K, relaxation calorimetry	136.16
190.15 K, Small sample (50 mg) DSC	131.98
191.15 K, Small sample (50 mg) DSC	132.97
191.4 K, relaxation calorimetry	137.23
192.15 K, Small sample (50 mg) DSC	133.65
193.15 K, Small sample (50 mg) DSC	134.27
194.15 K, Small sample (50 mg) DSC	135.12
195.15 K, Small sample (50 mg) DSC	135.91
196.15 K, Small sample (50 mg) DSC	136.66
197.15 K, Small sample (50 mg) DSC	137.42
198.15 K, Small sample (50 mg) DSC	138.16
199.15 K, Small sample (50 mg) DSC	138.8
200 K, relaxation calorimetry	142.15
200.15 K, Small sample (50 mg) DSC	139.49
201.15 K, Small sample (50 mg) DSC	140.3
201.57 K, relaxation calorimetry	142.67
202.15 K, Small sample (50 mg) DSC	141.06
203.15 K, Small sample (50 mg) DSC	141.64
204.15 K, Small sample (50 mg) DSC	142.39
205.15 K, Small sample (50 mg) DSC	143.02
206.15 K, Small sample (50 mg) DSC	143.74
207.15 K, Small sample (50 mg) DSC	144.43
208.15 K, Small sample (50 mg) DSC	145.06
209.15 K, Small sample (50 mg) DSC	145.72
210 K, relaxation calorimetry	148.19
210.15 K, Small sample (50 mg) DSC	146.38
211.15 K, Small sample (50 mg) DSC	147.05
211.68 K, relaxation calorimetry	149.03
212.15 K, Small sample (50 mg) DSC	147.72
213.15 K, Small sample (50 mg) DSC	148.33
214.15 K, Small sample (50 mg) DSC	149.06
215.15 K, Small sample (50 mg) DSC	149.6
216.15 K, Small sample (50 mg) DSC	150.38
217.15 K, Small sample (50 mg) DSC	151.13
218.15 K, Small sample (50 mg) DSC	152.05
219.15 K, Small sample (50 mg) DSC	152.76
220 K, relaxation calorimetry	154.3
220.15 K, Small sample (50 mg) DSC	153.39
221.15 K, Small sample (50 mg) DSC	153.99
221.77 K, relaxation calorimetry	155.91
222.15 K, Small sample (50 mg) DSC	154.72
223.15 K, Small sample (50 mg) DSC	155.35
224.15 K, Small sample (50 mg) DSC	155.94
225.15 K, Small sample (50 mg) DSC	156.64
226.15 K, Small sample (50 mg) DSC	157.32
227.15 K, Small sample (50 mg) DSC	157.87
228.15 K, Small sample (50 mg) DSC	158.58
229.15 K, Small sample (50 mg) DSC	159.08
230 K, relaxation calorimetry	160.49
230.15 K, Small sample (50 mg) DSC	159.71
231.15 K, Small sample (50 mg) DSC	160.4
231.87 K, relaxation calorimetry	161.72
232.15 K, Small sample (50 mg) DSC	160.98
233.15 K, Small sample (50 mg) DSC	161.67
234.15 K, Small sample (50 mg) DSC	162.2
235.15 K, Small sample (50 mg) DSC	162.87
236.15 K, Small sample (50 mg) DSC	163.51
237.15 K, Small sample (50 mg) DSC	164.14
238.15 K, Small sample (50 mg) DSC	164.86
239.15 K, Small sample (50 mg) DSC	165.4
240 K, relaxation calorimetry	166.8
240.15 K, Small sample (50 mg) DSC	166.04
241.15 K, Small sample (50 mg) DSC	166.73
241.87 K, relaxation calorimetry	168.05
242.15 K, Small sample (50 mg) DSC	167.44
243.15 K, Small sample (50 mg) DSC	168.16
